Results: the supplement of paper PMC5908809

Key:
[1] = tested on: NKL (IL-2 2.5 ng/mL); test: percent inhibition of viability; higher = more inhibition; details: 72 h
[2] = tested on: KAI3 (IL-2 2.5 ng/mL); test: as above; details: 72 h
[3] = tested on: normal primary NK cells, pool 2 (3 donors) (IL-2 2.5 ng/mL); test: as above; details: 72 h
[4] = tested on: normal primary NK cells, pool 1 (3 donors), resting (IL-2 0 ng/mL); test: as above; details: 72 h
[5] = tested on: YT (IL-2 2.5 ng/mL); test: as above; details: 72 h
[6] = tested on: SNK-6 (IL-2 2.5 ng/mL); test: as above; details: 72 h
[7] = tested on: normal primary NK cells, pool 1 (3 donors) (IL-2 2.5 ng/mL); test: as above; details: 72 h
[8] = tested on: NK-92 (IL-2 2.5 ng/mL); test: as above; details: 72 h
[9] = tested on: NK-YS (IL-2 2.5 ng/mL); test: as above; details: 72 h
[10] = tested on: normal primary NK cells, pool 3 (3 donors) (IL-2 2.5 ng/mL); test: as above; details: 72 h
[11] = tested on: IMC-1 (IL-2 20 ng/mL); test: as above; details: 72 h
[12] = tested on: KHYG-1 (IL-2 2.5 ng/mL); test: as above; details: 72 h
[13] = tested on: DERL-7 (IL-2 2.5 ng/mL); test: as above; details: 72 h
[14] = tested on: normal NK cells expanded with K562-aAPC; test: drug sensitivity score (DSS) (DSS units); higher = more sensitive; extreme values may be limits of the assay; details: 72 h; IL-2 2.5 ng/mL
Procedure: (§1)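 Drug sensitivity and resistance testing on K562-aAPC-expanded normal NK cells: 5 concentrations (10-fold steps over a 10,000-fold range), 72 h at 37 °C, viability by CellTiter-Glo normalised to DMSO and benzethonium chloride controls; DSS from the fitted curve.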

[15] = tested on: normal NK cells expanded with K562-aAPC; test: percent inhibition of viability; higher = more inhibition; details: 72 h, IL-2 2.5 ng/mL
Procedure: as §1

[16] = tested on: NKL (IL-2 2.5 ng/mL); test: drug sensitivity score (DSS) (DSS units); higher = more sensitive; extreme values may be limits of the assay; details: 72 h
[17] = tested on: KAI3 (IL-2 2.5 ng/mL); test: as above; details: 72 h
[18] = tested on: normal primary NK cells, pool 2 (3 donors) (IL-2 2.5 ng/mL); test: as above; details: 72 h
[19] = tested on: normal primary NK cells, pool 1 (3 donors), resting (IL-2 0 ng/mL); test: as above; details: 72 h
[20] = tested on: YT (IL-2 2.5 ng/mL); test: as above; details: 72 h
[21] = tested on: SNK-6 (IL-2 2.5 ng/mL); test: as above; details: 72 h
[22] = tested on: normal primary NK cells, pool 1 (3 donors) (IL-2 2.5 ng/mL); test: as above; details: 72 h
[23] = tested on: NK-92 (IL-2 2.5 ng/mL); test: as above; details: 72 h
[24] = tested on: NK-YS (IL-2 2.5 ng/mL); test: as above; details: 72 h
[25] = tested on: normal primary NK cells, pool 3 (3 donors) (IL-2 2.5 ng/mL); test: as above; details: 72 h
[26] = tested on: IMC-1 (IL-2 20 ng/mL); test: as above; details: 72 h
[27] = tested on: KHYG-1 (IL-2 2.5 ng/mL); test: as above; details: 72 h
[28] = tested on: DERL-7 (IL-2 2.5 ng/mL); test: as above; details: 72 h

C[C@]12C=CC(=O)C=C1CC[C@@H]1[C@@H]2[C@@H](O)C[C@@]2(C)[C@H]1CC[C@]2(O)C(=O)CO [Prednisolone] (max concentration tested 10000 nM)
percent inhibition of viability [%]
Details | 1 nM | 10 nM | 100 nM | 1000 nM | 10000 nM
[1] | 3.58 | 12 | 48.8 | 51.4 | 55.3
[2] | -9.17 | -13.6 | -7.78 | -7.77 | -8.06
[3] | -6.45 | -3.01 | 28.6 | 51.2 | 65
[4] | 4.52 | 3.57 | 56.8 | 80.2 | 89.9
[5] | -0.96 | 6.16 | 13.1 | 20.2 | 18.8
[6] | 5.43 | 22.4 | 7.45 | 10.2 | 35.9
[7] | 1.14 | 10.2 | 27.4 | 63.4 | 78.3
[8] | -16 | -15.5 | -34.4 | -24.4 | -24.4
[9] | -2.75 | -1.1 | -1.97 | -1.53 | 5.33
[10] | -9.31 | -4.01 | 13.1 | 36.8 | 47.6
[11] | -3.99 | -3.97 | -9.73 | -19.4 | -17
[12] | -5.42 | -2.27 | 10.1 | 29.8 | 34.5
[13] | -5.13 | 1.92 | 70 | 98 | 99.5
[15] | -2.45 | 5 | 39.2 | 57.3 | 63.9

Details | drug sensitivity score
[14] | 16.2
[16] | 17.5
[17] | 0
[18] | 13.2
[19] | 23
[20] | 3.72
[21] | 4.24
[22] | 15.3
[23] | 0
[24] | 0
[25] | 8.07
[26] | 0
[27] | 6.17
[28] | 26.2

Cn1c(Nc2ccc(C(F)(F)F)cc2)nc2cc(Oc3ccnc(-c4ncc(C(F)(F)F)[nH]4)c3)ccc21 [RAF265] (max concentration tested 1000 nM)
percent inhibition of viability [%]
Details | 0.1 nM | 1 nM | 10 nM | 100 nM | 1000 nM
[1] | 2.6 | 2.04 | 1.53 | 9.44 | 31.3
[2] | -0.58 | 3.63 | 9.74 | 26.2 | 47.5
[3] | -11 | 7.1 | -0.02 | -1.76 | 19.7
[4] | -7.48 | 14.2 | 11.3 | 45.5 | 69.8
[5] | -4.07 | -2.24 | 1.77 | 6.57 | 15.5
[6] | 6.03 | 2.76 | 3.1 | -14.9 | 44.9
[7] | -7.64 | 17.4 | 8.25 | 15.4 | 23
[8] | -17.8 | -16.1 | -9.27 | 11.7 | 59.3
[9] | -5.8 | -6.28 | -1.83 | 4.39 | 18.3
[10] | -13 | 11.3 | 6.16 | -1.81 | 8.78
[11] | -5.99 | -2.17 | -3.34 | -3.31 | 12
[12] | -7.83 | -6.28 | -1.05 | 11.5 | 34.9
[13] | -3.61 | 1.74 | -1.22 | 22.4 | 46.9
[15] | -1.93 | -2.9 | -2.68 | 12.1 | 30.9

Details | drug sensitivity score
[14] | 2.97
[16] | 2.71
[17] | 5.82
[18] | 0.47
[19] | 10.2
[20] | 0.52
[21] | 1.66
[22] | 2.83
[23] | 5.13
[24] | 0.99
[25] | 0
[26] | 0.01
[27] | 3.28
[28] | 5.33

COc1cc(OC)c(/C=C/S(=O)(=O)Cc2ccc(OC)c(NCC(=O)O)c2)c(OC)c1 [Rigosertib] (max concentration tested 10000 nM)
percent inhibition of viability [%]
Details | 1 nM | 10 nM | 100 nM | 1000 nM | 10000 nM
[1] | -16.2 | -17.7 | 87.4 | 92.2 | 85.4
[2] | -3.07 | 5.22 | 55 | 71.9 | 67.5
[3] | -8.68 | -8.95 | -9.12 | 13.6 | 37.4
[4] | -8.83 | -4.84 | 6.87 | 37.8 | 69.8
[5] | -2.58 | 3.15 | 82.9 | 98.4 | 95.7
[6] | -14.2 | 3 | 76.5 | 95.2 | 97.2
[7] | -11.3 | -13.9 | -2.02 | 15.3 | 45.3
[8] | -6.11 | 2.36 | 77.7 | 97.1 | 94.3
[9] | -0.07 | 0.08 | 70.9 | 76.8 | 77.4
[10] | -13.6 | -15.7 | -12.6 | -0.93 | 21.3
[11] | -6.34 | -1.76 | 93.8 | 99.2 | 97.8
[12] | -1.12 | -2.53 | 96.6 | 102 | 97.6
[13] | -3.53 | 3.03 | 91 | 98 | 97.8
[15] | -1.17 | -9.48 | -1.76 | 57.7 | 82.7

Details | drug sensitivity score
[14] | 11.3
[16] | 26.7
[17] | 20.3
[18] | 3.7
[19] | 8.37
[20] | 27.8
[21] | 26.8
[22] | 4.54
[23] | 26.8
[24] | 23
[25] | 0.62
[26] | 29.3
[27] | 29.8
[28] | 29.1

O=C(CCCCCCNC(=O)c1cnc(N(c2ccccc2)c2ccccc2)nc1)NO [Rocilinostat] (max concentration tested 10000 nM)
percent inhibition of viability [%]
Details | 1 nM | 10 nM | 100 nM | 1000 nM | 10000 nM
[1] | -10.5 | -16 | -8.09 | 62.8 | 104
[2] | 0.64 | -3.56 | 4.44 | 55.4 | 96.6
[3] | -7.32 | -6.43 | 5.49 | 23.4 | 94
[4] | 8.2 | -4.24 | 18.1 | 59.2 | 90.9
[5] | 0.06 | -7.38 | -4.05 | 18.3 | 101
[6] | -5.08 | -17.2 | -1.48 | 31.4 | 97.9
[7] | 2.06 | 3.65 | 16.7 | 40.9 | 97.5
[8] | -11.1 | -18.3 | 11.4 | 41 | 102
[9] | 2.13 | -8.18 | 0.48 | 22.7 | 98.8
[10] | -3.33 | -0.54 | 6.26 | 8.12 | 96.7
[11] | -4.44 | -8.29 | -0.57 | 8.19 | 100
[12] | 3.34 | 0.58 | -3.42 | 47.2 | 101
[13] | -3.48 | -3.35 | -1.28 | 14.9 | 99.9
[15] | -3.43 | -1.33 | -2.48 | 24.8 | 99.9

Details | drug sensitivity score
[14] | 9.32
[16] | 12.8
[17] | 12
[18] | 8.8
[19] | 13.4
[20] | 8.53
[21] | 9.9
[22] | 10.4
[23] | 10.4
[24] | 9.02
[25] | 6.65
[26] | 6.83
[27] | 11.5
[28] | 8.01

CCC(C)(C)C(=O)O[C@H]1C[C@@H](C)C=C2C=C[C@H](C)[C@H](CC[C@@H]3C[C@@H](O)CC(=O)O3)[C@H]21 [Simvastatin] (max concentration tested 10000 nM)
percent inhibition of viability [%]
Details | 1 nM | 10 nM | 100 nM | 1000 nM | 10000 nM
[1] | -16.6 | -8.92 | 0.63 | 6 | 68.9
[2] | 3.02 | -8.09 | -7.7 | -3.05 | 22.5
[3] | -9.03 | -7.28 | -6.35 | 14.3 | 19.6
[4] | -0.52 | -1.88 | -12.8 | -6.51 | 13.3
[5] | 0.42 | -0.1 | 0.72 | 2.62 | 23.9
[6] | 4.57 | -0.33 | 6.13 | -5.3 | 1.07
[7] | -7.84 | 9.33 | -16.5 | -3.95 | 8.72
[8] | -8.62 | -9.55 | 2.91 | -5.14 | -1.54
[9] | -1.72 | 2.03 | 2 | 6.51 | 68.6
[10] | -9.67 | -10.8 | -5.99 | 4.87 | 2.32
[11] | -0.2 | -3.36 | 3.54 | 3.84 | 38.1
[12] | 2.27 | -0.82 | 3.03 | 5.63 | 11.2
[13] | -1.97 | -3.51 | 4.88 | 4.07 | 10.3
[15] | 0.17 | -4.47 | -1.19 | -2.06 | 6.89

Details | drug sensitivity score
[14] | 0
[16] | 4.74
[17] | 0.61
[18] | 1.89
[19] | 0.04
[20] | 1.26
[21] | 0
[22] | 0
[23] | 0
[24] | 4.82
[25] | 0
[26] | 2.48
[27] | 0
[28] | 0
